Measured values from patent US10703748B2, “Diazanaphthalen-3-yl carboxamides and preparation and use thereof” (Samumed, LLC, priority 2017, dated 2020).

How the values were obtained:
[1] = tested on: secreted cytokines TNFα, IL-6 and KC-GRO; experiment: Secreted cytokines in Lipopolysaccharide-stimulated BV-2 cells (Table 9 does not say which cytokine); type: cell-based, mouse; conditions: Mus musculus, BV-2, 5 h; read-out: EC50
Method: BV-2 cells (mouse microglial cells) were cultured in 1:1 DMEM medium supplemented with 10% FBS, and 1% penicillin/streptomycin.
BV-2 cells are plated at 35,000 cells/well in a volume of 100 μl for at least 4 hours before compounds are added. […] Compounds were added to cells overnight. […] Supernatant is removed and saved for further cytokine detection. The original plates with seeded cells were tested for cytotoxicity by measure of adenosine triphosphate (ATP) release by adding CellTiter-Glo® diluted 1:4 in distilled water (G7573, Promega) and transferring lysed cells to a completely black 96-well plate to be read with the Cytation3. Supernatant was then diluted 1:2 with a diluent from V-PLEX cytokine Kit and directly tested for the secreted cytokines TNFα, IL-6 and KC-GRO using electrochemiluminescence (Meso Scale Discovery). The standard curve for each cytokine was used to convert the electrochemiluminescent signal into pg of protein per mL.

[2] = tested on: α-smooth muscle actin (aSMA) positive LL29 cells; experiment: Inhibition of the fibrotic process: αSMA staining in TGF-β1 treated LL29 fibroblasts from IPF patients; conditions: Homo sapiens, Fibroblast; for EC50: 96 h; for inhibition at 10 µM: read-out: percentage in parentheses after EC50 >10
DYRK1A kinase = DYRK1A kinase (Homo sapiens, UniProt Q13627); experiment: DYRK1A kinase activity (Ser/Thr 18 peptide Z-lyte FRET assay); type: biochemical; conditions: recombinant DYRK1A, 30 μM ATP, one hour at room temperature;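 further: kinase activity read as coumarin/fluorescein emission ratio after development step, with unphosphorylated and phosphorylated peptide forms setting 0% and 100% controls, values from dose-response curves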
Method: Representative compounds were screened using the assay procedure for DYRK1A kinase activity as described below.
Each compound was dissolved in DMSO as a 10 mM stock and used to prepare compound source plates.
This is a non-radioactive assay using fluorescence resonance energy transfer (FRET) between coumarin and fluorescein to detect kinase activity which is represented as a ratio of coumarin emission/fluorescein emission.
The mixture was allowed to incubate with the representative compounds for one hour at room temperature. All reactions were performed in duplicate. Unphosphorylated (“0% Control”) and phosphorylated (“100% control”) forms of Ser/Thr 18 served as control reactions. Additionally, an 11-point dose-response curve of Staurosporine (1 uM top) was run to serve as a positive compound control.
After incubation, Development Reagent A was diluted in Development Buffer then added to the reaction and allowed to further incubate for one hour at room temperature.
Dose-response curves were generated and inhibitory concentration (IC50) values were calculated using non-linear regression curve fit in the Dotmatics' Studies Software (Bishops Stortford, UK).

[3] = tested on: SW480 colon carcinoma cells; experiment: Cell viability assay (CellTiter-Glo); conditions: Homo sapiens; for EC50: SW480, 96 h; for inhibition at 10 µM: SW480, read-out: percent inhibition at 10 μM
IL-6 = IL-6 inhibition in LPS-stimulated human peripheral blood mononuclear cells (HTRF); conditions: Homo sapiens, PBMC; for EC50: 22 h; for inhibition at 10 µM: read-out: percentage in parentheses after EC50 >10
[4] = tested on: Wnt-responsive Sp5-Luc reporter in SW480 colon carcinoma cells; experiment: Screening assay for Wnt activity (Sp5-Luc reporter gene assay); conditions: Homo sapiens; for EC50: SW480; for inhibition at 10 µM: SW480, read-out: percent inhibition at 10 μM
Method: The screening assay for Wnt activity is described as follows.
SW480 colon carcinoma cells were transduced with a lentiviral vector expressing luciferase with a human Sp5 promoter consisting of a sequence of eight TCF/LEF binding sites. […] These stably transduced SW480 cells were expanded in cell culture and used for all further screening activities. Each compound was dissolved in DMSO as a 10 mM stock and used to prepare compound source plates. Serial dilution (1:3, 10-point dose-response curves starting from 10 μM) and compound transfer was performed using the ECHO 550 (Labcyte, Sunnyvale, Calif.) into 384-well white solid bottom assay plates (Greiner Bio-One) with appropriate DMSO backfill for a final DMSO concentration of 0.1%. […] Following incubation, 15 μl of BriteLite Plus luminescence reagent (Perkin Elmer) was added to each well of the 384-well assay plates. The plates were placed on an orbital shaker for 2 min and then luminescence was quantified using the Envision (Perkin Elmer) plate reader.

GSK3β kinase = GSK3β kinase (Homo sapiens, UniProt P49841); experiment: GSK3β kinase activity (Ser/Thr 09 peptide Z-lyte FRET assay); type: biochemical; conditions: recombinant kinase, 46 μM ATP, one hour at room temperature; read-out: EC50
[5] = tested on: Tau phosphorylation at Ser396 (pSer396); experiment: Tau phosphorylation at Ser396 (pSer396) in SH-SY5Y cells, ELISA / western blot; type: cell-based, human; conditions: Homo sapiens; SH-SY5Y cells, overnight (16-18 h); read-out: pSer396 Tau EC50;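 further: decrease in pSer396 Tau measured in lysates of treated cells by colorimetric ELISA or chemiluminescent western blot, same pSer396 antibody for both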
Method: Two days before treatment, cells were seeded onto 96 well plates at 5×10^4 cells/well.
The above synthesized compounds were screened using the cell assay procedure to assess decrease Tau phosphorylation at Ser396 (pSer396) described below.
Cells were lysed with RIPA buffer complemented with phosphatase and protease inhibitors then lysates were spun down at 12,000 g for 10 min to remove any cellular debris.

GSK3β kinase, sequence (P49841 whole entry): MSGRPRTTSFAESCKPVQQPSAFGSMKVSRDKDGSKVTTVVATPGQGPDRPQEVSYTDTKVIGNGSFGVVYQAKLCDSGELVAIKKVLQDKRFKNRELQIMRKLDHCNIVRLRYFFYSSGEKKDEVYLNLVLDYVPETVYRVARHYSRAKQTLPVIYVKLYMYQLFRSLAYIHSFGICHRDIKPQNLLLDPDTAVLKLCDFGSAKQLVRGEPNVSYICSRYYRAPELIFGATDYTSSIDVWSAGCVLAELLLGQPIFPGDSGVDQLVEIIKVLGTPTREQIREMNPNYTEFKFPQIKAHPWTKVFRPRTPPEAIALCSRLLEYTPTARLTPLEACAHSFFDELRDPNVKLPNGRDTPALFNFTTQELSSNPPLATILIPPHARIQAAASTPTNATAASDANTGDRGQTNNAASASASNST

EC50 [1] | EC50 (DYRK1A kinase) | EC50 [3] | EC50 (IL-6) | EC50 [4] | EC50 (GSK3β kinase) | EC50 [5] | Compound | EC50 [2] | inhibition at 10 µM (IL-6) | inhibition at 10 µM [2] | inhibition at 10 µM [3] | inhibition at 10 µM [4]
≥ 10000 nM | 8 nM | 8160 nM | > 10000 nM | 221 nM | 390 nM | 7280 nM | CN1CCC(Oc2ccc(C(=O)Nc3cc4cc(-c5cnn(C)c5)ncc4cn3)cc2)CC1 [Compound 3772, N-(6-(1-Methyl-1H-pyrazol-4-yl)-2,7-naphthyridin-3-yl)-4-((1-methylpiperidin-4-yl)oxy)benzamide] | 1140 nM | 10.6% | – | – | –
79 nM | 12 nM | 3660 nM | > 10000 nM | 2120 nM | 243 nM | 3640 nM | CN1CCN(Cc2cccc(C(=O)Nc3cc4cc(-c5cnn(C)c5)ncc4cn3)c2)CC1 [Compound 3799, N-(6-(1-Methyl-1H-pyrazol-4-yl)-2,7-naphthyridin-3-yl)-3-((4-methylpiperazin-1-yl)methyl)benzamide] | 2580 nM | 5.3% | – | – | –
244 nM | 7 nM | 231 nM | 8410 nM | 176 nM | 1 nM | 29 nM | Cn1cc(-c2cc3cc(NC(=O)CCc4ccccc4)ncc3cn2)cn1 [Compound 3821, N-(6-(1-Methyl-1H-pyrazol-4-yl)-2,7-naphthyridin-3-yl)-3-phenylpropanamide] | 313 nM | – | – | – | –
4700 nM | 48 nM | 1300 nM | 8810 nM | 361 nM | 39 nM | 367 nM | Cn1ncc(-c2cc3cc(NC(=O)C4CC5(C4)CN(CCF)C5)ncc3cn2)c1CN1CCCCC1 [Compound 3907, 2-(2-Fluoroethyl)-N-(6-(1-methyl-5-(piperidin-1-ylmethyl)-1H-pyrazol-4-yl)-2,7-naphthyridin-3-yl)-2-azaspiro[3.3]heptane-6-carboxamide] | 1820 nM | – | – | – | –
471 nM | 6 nM | 7300 nM | > 10000 nM | 962 nM | 18 nM | 428 nM | O=C(Nc1cc2cc(-c3cnn4c3CN(CCF)CC4)ncc2cn1)C1CCC(F)(F)CC1 [Compound 3944, 4,4-Difluoro-N-(6-(5-(2-fluoroethyl)-4,5,6,7-tetrahydropyrazolo[1,5-a]pyrazin-3-yl)-2,7-naphthyridin-3-yl)cyclohexane-1-carboxamide] | 416 nM | 22.2% | – | – | –
≥ 10000 nM | 21 nM | > 10000 nM | > 10000 nM | > 10000 nM | 72 nM | 219 nM | Cn1cncc1-c1cc2cc(NC(=O)C3CCC(F)(F)CC3)ncc2cn1 [Compound 4027, 4,4-Difluoro-N-(6-(1-methyl-1H-imidazol-5-yl)-2,7-naphthyridin-3-yl) cyclohexane-1-carboxamide] | > 10000 nM | 4% | 33.9% | 26.3% | 17.5%
3900 nM | 630 nM | 4540 nM | > 10000 nM | 291 nM | 19 nM | 102 nM | CC(C(=O)Nc1cc2cc(-c3cncn3C)ncc2cn1)N1CCCC1 (stereo not drawn) [Compound 4041, N-(6-(1-Methyl-1H-imidazol-5-yl)-2,7-naphthyridin-3-yl)-2-(pyrrolidin-1-yl) propanamide] | 3490 nM | 0% | – | – | –
1200 nM | 3 nM | 7750 nM | > 10000 nM | > 10000 nM | 145 nM | 10000 nM | Cn1cncc1-c1cc2cc(NC(=O)c3ccc4c(c3)CNC4)ncc2cn1 [Compound 4104, N-(6-(1-Methyl-1H-imidazol-5-yl)-2,7-naphthyridin-3-yl)isoindoline-5-carboxamide] | 3080 nM | 5.7% | – | – | 41.3%
859 nM | 4 nM | 8440 nM | > 10000 nM | 972 nM | 72 nM | 989 nM | O=C(Nc1cc2cc(-c3cnco3)ncc2cn1)C1CCN(C(=O)CN2CCCC2)CC1 [Compound 4159, N-(6-(Oxazol-5-yl)-2,7-naphthyridin-3-yl)-1-(2-(pyrrolidin-1-yl)acetyl) piperidine-4-carboxamide] | 347 nM | 10.1% | – | – | –
1700 nM | 5 nM | > 10000 nM | > 10000 nM | > 10000 nM | 187 nM | 491 nM | CN(C)[C@H]1CC[C@H](C(=O)Nc2cc3cc(-c4cncs4)ncc3cn2)CC1 [Compound 4239, trans-4-(dimethylamino)-N-(6-(thiazol-5-yl)-2,7-naphthyridin-3-yl) cyclohexane-1-carboxamide] | > 10000 nM | 10.5% | 50% | 27.6% | 41.9%
516 nM | 39 nM | > 10000 nM | > 10000 nM | 1520 nM | 199 nM | 553 nM | CN1CCC(C(=O)Nc2cc3cc(-c4cnsc4)ncc3cn2)CC1 [Compound 4319, N-(6-(Isothiazol-4-yl)-2,7-naphthyridin-3-yl)-1-methylpiperidine-4-carboxamide] | 1630 nM | 11.4% | – | 43% | –
524 nM | 4 nM | > 10000 nM | > 10000 nM | 3640 nM | 77 nM | 10000 nM | O=C(Nc1cc2cc(-c3cncc(NC4CCNCC4)n3)ncc2cn1)C1CCOCC1 [Compound 4504, N-(6-(6-(Piperidin-4-ylamino)pyrazin-2-yl)-2,7-naphthyridin-3-yl) tetrahydro-2H-pyran-4-carboxamide] | 384 nM | 7.3% | – | 47.9% | –
162 nM | 9 nM | 4050 nM | 2860 nM | 346 nM | 188 nM | 925 nM | Cn1cc(-c2ccc3cnc(NC(=O)[C@H]4CC[C@H](NCCF)CC4)cc3n2)cn1 [Compound 4535, trans-4-((2-Fluoroethyl)amino)-N-(2-(1-methyl-1H-pyrazol-4-yl)-1,6-naphthyridin-7-yl) cyclohexane-1-carboxamide] | > 10000 nM | – | 25% | – | –
89 nM | 14 nM | > 10000 nM | 3020 nM | 832 nM | 319 nM | > 10000 nM | COCCN[C@H]1CC[C@H](C(=O)Nc2cc3nc(-c4cnn(C)c4)ccc3cn2)CC1 [Compound 4536, trans-4-((2-Methoxyethyl)amino)-N-(2-(1-methyl-1H-pyrazol-4-yl)-1,6-naphthyridin-7-yl) cyclohexane-1-carboxamide] | 1140 nM | – | – | 45.9% | –
353 nM | 33 nM | 5610 nM | 7770 nM | 59 nM | 18 nM | 76 nM | Cc1ncc(-c2ccc3cnc(NC(=O)C(C)N4CCCC4)cc3n2)n1C (stereo not drawn) [Compound 4544, N-(2-(1,2-Dimethyl-1H-imidazol-5-yl)-1,6-naphthyridin-7-yl)-2-(pyrrolidin-1-yl)propanamide] | 1090 nM | – | – | – | –
